According to patent US4355040A, “Hypotensive imidazole-5-acetic acid derivatives” (Takeda Chemical Industries, Ltd., priority 1979, dated 1982):
Structures can show the parent of a compound that is named as a salt. Where two headings read alike, the source gives them in different places.

Legend:
[1] = system: angiotensin II (aortic blood vessel of rabbits); experiment: Antagonistic effect on angiotensin II (A II)-induced tension, aortic blood vessel of rabbits; assay type: cell-based; conditions: Oryctolagus cuniculus, 0.25 h; for inhibition at 0.1 µM: 10^-7 M drug substance
From the text: Antagonistic effect of the compound (I) of the present invention on angiotensin II (hereinafter referred to briefly as "A II") (with aortic blood vessel of rabbits)
The blood-vessel preparation and reaction were done in accordance with the method as described in "European Journal of Pharmacology", 18, 316 (1972). […] [formula] where; T1 =Change in isometric tension of the blood vessel brought about by A II without a test drug substance (g)

[2] = system: angiotensin II-induced elevation of blood pressure; experiment: Inhibitory activity against angiotensin II-induced elevation of blood pressure in rats; assay type: in vivo, Male SD rats; conditions: Rattus norvegicus, iv; for inhibition in vivo at 0.5 mg/kg: 0.5 mg/kg intravenously; for inhibition in vivo at 1 mg/kg: 1.0 mg/kg intravenously
[3] = 10^-5 M drug substance, A II 4×10^-9 M, 15 minutes, read-out: Inhibition
[4] = 10^-6 M drug substance, A II 4×10^-9 M, 15 minutes, read-out: Inhibition
[5] = 10 min, A II 20 ng/kg/min, 10 min, read-out: Inhibition (%), after 10 min.
[6] = 0.5 h, A II 20 ng/kg/min, 30 min, read-out: Inhibition (%), after 30 min.
[7] = 1.5 h, A II 20 ng/kg/min, 90 min, read-out: Inhibition (%), after 90 min.
[8] = 10 min, read-out: Inhibition (%), after 10 min.
[9] = 0.5 h, read-out: Inhibition (%), after 30 min.
[10] = 1.5 h, read-out: Inhibition (%), after 90 min.

## Cc1ccccc1Cn1c(-c2ccccc2)nc(Cl)c1CC(=O)O
[1]; [3]
  inhibition at 10 µM: 58%

## O=C(O)Cc1c(Cl)nc(-c2ccccc2)n1Cc1c(Cl)cccc1Cl
[1]; [4]
  inhibition at 1 µM: 34%

## O=C(O)Cc1c(Cl)nc(-c2ccccc2)n1Cc1c(F)cccc1Cl
[1]; [4]
  inhibition at 1 µM: 64%

## O=C(O)Cc1c(Cl)nc(-c2ccccc2)n1Cc1ccccc1Br
[1]; [4]
  inhibition at 1 µM: 60%

## CCCCNc1ccc(-c2nc(Cl)c(CC(=O)O)n2Cc2ccccc2)cc1
[1]; [3]
  inhibition at 10 µM: 63%

## O=C(O)Cc1c(Cl)nc(-c2ccccc2[N+](=O)[O-])n1Cc1ccccc1
[1]; [3]
  inhibition at 10 µM: 35%

## Nc1ccccc1-c1nc(Cl)c(CC(=O)O)n1Cc1ccccc1
[1]; [3]
  inhibition at 10 µM: 30%

## O=C(O)Cc1c(Cl)nc(-c2cccc(O)c2)n1Cc1ccccc1
[1]; [3]
  inhibition at 10 µM: 18%

## O=C(O)Cc1c(Cl)nc(-c2ccc3c(c2)OCO3)n1Cc1ccccc1
[1]; [3]
  inhibition at 10 µM: 51%

## CN(C)c1ccc(-c2nc(Cl)c(CC(=O)O)n2Cc2ccccc2)cc1[N+](=O)[O-]
[1]; [3]
  inhibition at 10 µM: 73%

## CN(C)c1c([N+](=O)[O-])cc(-c2nc(Cl)c(CC(=O)O)n2Cc2ccccc2)cc1[N+](=O)[O-]
[1]
  inhibition at 10 µM: 86%

## CCN(CC)c1ccc(-c2nc(Cl)c(CC(=O)O)n2Cc2ccccc2)cc1Cl
[1]; [4]
  inhibition at 1 µM: 25%

## O=C(O)Cc1c(Cl)nc(-c2ccccc2O)n1Cc1ccccc1
[1]; [3]
  inhibition at 10 µM: 55%

## CN(C)c1ccc(-c2nc(Cl)c(CC(=O)O)n2Cc2ccccc2)cc1Cl
[1]; [4]
  inhibition at 1 µM: 33%

## CN(C)c1ccc(-c2nc(Cl)c(CC(=O)O)n2Cc2ccccc2)cc1Br
[1]; [4]
  inhibition at 1 µM: 18%

## O=C(O)Cc1c(Cl)nc(-c2ccc(O)c(O)c2)n1Cc1ccccc1
[1]; [4]
  inhibition at 1 µM: 34%

## COc1cccc(-c2nc(Cl)c(CC(=O)O)n2Cc2ccccc2Cl)c1
[1]; [4]
  inhibition at 1 µM: 23%

## COc1cc(-c2nc(Cl)c(CC(=O)O)n2Cc2ccccc2)ccc1O
[1]; [4]
  inhibition at 1 µM: 16%

## COc1ccccc1Cn1c(-c2ccccc2)nc(Cl)c1CC(=O)O
[1]; [4]
  inhibition at 1 µM: 42%

## COc1ccc(Cn2c(-c3ccccc3)nc(Cl)c2CC(=O)O)cc1
[1]; [3]
  inhibition at 10 µM: 61%

## CCOc1ccc(Cn2c(-c3ccccc3)nc(Cl)c2CC(=O)O)cc1
[1]; [4]
  inhibition at 1 µM: 43%

## CCOc1ccccc1Cn1c(-c2ccccc2)nc(Cl)c1CC(=O)O
[1]; [4]
  inhibition at 1 µM: 41%

## COc1ccc(Cn2c(-c3ccccc3)nc(Cl)c2CC(=O)O)cc1OC
[1]; [4]
  inhibition at 1 µM: 38%

## CCOc1ccc(Cn2c(-c3ccccc3)nc(Cl)c2CC(=O)O)cc1C
[1]; [4]
  inhibition at 1 µM: 81%

## COc1ccc(-c2nc(Cl)c(CC(=O)O)n2Cc2ccccc2)cc1OC
[1]; [4]
  inhibition at 1 µM: 18%

## COc1ccc(-c2nc(Cl)c(CC(=O)O)n2Cc2ccccc2)cc1C
[1]; [4]
  inhibition at 1 µM: 32%

## COc1ccc(Cn2c(-c3ccc(OC)c(C)c3)nc(Cl)c2CC(=O)O)cc1C
[1]; [4]
  inhibition at 1 µM: 54%

## COc1cc(-c2nc(Cl)c(CC(=O)O)n2Cc2ccccc2)ccc1OCc1ccccc1
[1]; [4]
  inhibition at 1 µM: 18%

## O=C(O)Cc1c(Cl)nc(C2CCCC2)n1Cc1ccccc1
[1]; [4]
  inhibition at 1 µM: 34%

## O=C(O)Cc1c(Cl)nc(C2CCCCC2)n1Cc1ccccc1
[1]; [4]
  inhibition at 1 µM: 18%

## O=C(O)Cc1c(Cl)nc(-c2ccccc2)n1Cc1ccc(Cl)cc1Cl [1-(2,4-dichlorobenzyl)-4-chloro-2-phenylimidazole-5-acetic acid hydrochloride]
[1]; [3]
  inhibition at 10 µM: 30%

## O=C(O)Cc1c(Cl)nc(-c2ccccc2)n1Cc1cc([N+](=O)[O-])ccc1Cl [1-(2-chloro-5-nitrobenzyl)-4-chloro-2-phenylimidazole-5-acetic acid]
[1]; [4]
  inhibition at 1 µM: 34%

## O=C(O)Cc1c(Cl)nc(-c2ccccc2)n1Cc1ccc(OCc2ccccc2)cc1 [1-(4-benzyloxybenzyl)-4-chloro-2-phenylimidazole-5-acetic acid]
[1]; [3]
  inhibition at 10 µM: 19%

## O=C(O)Cc1c(Cl)nc(-c2ccccc2)n1Cc1ccc(Cl)cc1 [1-(4-chlorobenzyl)-4-chloro-2-phenylimidazole-5-acetic acid]
[1]; [3]
  inhibition at 10 µM: 25%

## O=C(O)Cc1c(Cl)nc(-c2ccccc2)n1Cc1ccccc1F [4-chloro-1-(2-fluorobenzyl)-2-phenylimidazole-5-acetic acid]
[1]; [4]
  inhibition at 1 µM: 23%

## COc1cccc(Cn2c(-c3ccccc3)nc(Cl)c2CC(=O)O)c1 [4-chloro-1-(3-methoxybenzyl)-2-phenylimidazole-5-acetic acid]
[1]; [3]
  inhibition at 10 µM: 73%

## Cc1ccc(Cn2c(-c3ccccc3)nc(Cl)c2CC(=O)O)cc1 [4-chloro-1-(4-methylbenzyl)-2-phenylimidazole-5-acetic acid]
[1]; [3]
  inhibition at 10 µM: 80%

## CCc1nc(Cl)c(CC(=O)O)n1Cc1ccccc1 [C2 H5 / H / H / H]
[1]; [4]
  inhibition at 1 µM: 36%

## Cc1nc(Cl)c(CC(=O)O)n1Cc1ccccc1 [CH3 / H / H / H]
[1]; [3]
  inhibition at 10 µM: 38%

## O=C(O)Cc1c(Cl)nc(-c2ccccc2)n1Cc1ccccc1Cl [drawing 92]
[1]; [3]
  inhibition at 10 µM: 90%

## Nc1ccc(-c2nc(Cl)c(CC(=O)O)n2Cc2ccccc2)cc1 [drawing 101]
[1]; [3]
  inhibition at 10 µM: 50%

## O=C(O)Cc1c(Cl)nc(-c2ccc(O)cc2)n1Cc1ccccc1 [drawing 103]
[1]; [3]
  inhibition at 10 µM: 32%

## O=C(O)Cc1c(Cl)nc(-c2cc([N+](=O)[O-])c(Cl)c([N+](=O)[O-])c2)n1Cc1ccccc1 [drawing 108]
[1]
  inhibition at 1 µM: 82%

## CCCCOc1ccc(Cn2c(-c3ccccc3)nc(Cl)c2CC(=O)O)cc1 [drawing 121]
[1]; [4]
  inhibition at 1 µM: 56%

## COc1ccc(Cn2c(-c3ccccc3)nc(Cl)c2CC(=O)O)cc1C [drawing 124, 4-chloro-1-(3-methyl-4-methoxybenzyl)-2-phenylimidazole-5-acetic acid]
[1]; [4]
  inhibition at 1 µM: 80%

## O=C(O)Cc1c(Cl)nc(-c2ccc(O)cc2)n1Cc1ccccc1 [drawing 132]
[2]; 10 min, 0.3 mg/kg intravenously, A II 20 ng/kg/min, 10 min, read-out: Inhibition (%), after 10 min.
  inhibition in vivo at 0.3 mg/kg: 10.7 ± 1.8%
[2]; [5]
  inhibition in vivo at 0.5 mg/kg: 14.8 ± 1.8%
[2]; 0.5 h, 0.3 mg/kg intravenously, A II 20 ng/kg/min, 30 min, read-out: Inhibition (%), after 30 min.
  inhibition in vivo at 0.3 mg/kg: 24.3 ± 2.3%
[2]; [6]
  inhibition in vivo at 0.5 mg/kg: 36 ± 3%
[2]; 1.5 h, 0.3 mg/kg intravenously, A II 20 ng/kg/min, 90 min, read-out: Inhibition (%), after 90 min.
  inhibition in vivo at 0.3 mg/kg: 11.7 ± 6%
[2]; [7]
  inhibition in vivo at 0.5 mg/kg: 35 ± 3.9%

## Nc1ccc(-c2nc(Cl)c(CC(=O)O)n2Cc2ccccc2)cc1 [drawing 133]
[2]; [5]
  inhibition in vivo at 0.5 mg/kg: 17.7 ± 1.2%
[2]; [6]
  inhibition in vivo at 0.5 mg/kg: 45.3 ± 2.4%
[2]; [7]
  inhibition in vivo at 0.5 mg/kg: 37 ± 8.6%

## O=C(O)Cc1c(Cl)nc(-c2ccccc2)n1Cc1ccccc1Cl [drawing 134]
[2]; [5]
  inhibition in vivo at 1 mg/kg: 11.8 ± 1.8%
[2]; [6]
  inhibition in vivo at 1 mg/kg: 36.5 ± 4.5%
[2]; [7]
  inhibition in vivo at 1 mg/kg: 32.3 ± 7%

## O=C(O)Cc1c(Cl)nc(-c2cc([N+](=O)[O-])c(Cl)c([N+](=O)[O-])c2)n1Cc1ccccc1 [drawing 135]
[2]; [8]
  inhibition in vivo at 0.1 mg/kg: 22.5 ± 3.2%
  inhibition in vivo at 0.3 mg/kg: 18%
[2]; [9]
  inhibition in vivo at 0.1 mg/kg: 55 ± 7.5%
  inhibition in vivo at 0.3 mg/kg: 72%
[2]; [10]
  inhibition in vivo at 0.1 mg/kg: 55 ± 7.5%
  inhibition in vivo at 0.3 mg/kg: 72%

## CC(C)c1nc(Cl)c(CC(=O)O)n1Cc1ccccc1 [i-C3 H7 / H / H / H]
[1]; [4]
  inhibition at 1 µM: 41%

## CCCc1nc(Cl)c(CC(=O)O)n1Cc1ccccc1 [n-C3 H7 / H / H / H]
[1]; [4]
  inhibition at 1 µM: 22%

## CCCCc1nc(Cl)c(CC(=O)O)n1Cc1ccccc1OCC [n-C4 H9 / 2-C2 H5 O / H / H, 2-Butyl-4-chloro-1-(2-ethoxybenzyl)imidazole-5-acetic acid]
[1]; [4]
  inhibition at 1 µM: 53%

## CCCCc1nc(Cl)c(CC(=O)O)n1Cc1ccccc1[N+](=O)[O-] [n-C4 H9 / 2-NO2 / H / H]
[1]; 10^-8 M drug substance, A II 4×10^-9 M, 15 minutes
  inhibition at 0.01 µM: 30%

## CCCCc1nc(Cl)c(CC(=O)O)n1Cc1ccc(OC)c(C)c1 [n-C4 H9 / 3-CH3 / 4-CH3 O / H]
[1]; [4]
  inhibition at 1 µM: 99%

## CCCCOc1ccc(Cn2c(CCCC)nc(Cl)c2CC(=O)O)cc1 [n-C4 H9 / 4-n-C4 H9 O / H / H]
[1]; [4]
  inhibition at 1 µM: 85%

## CCCCCc1nc(Cl)c(CC(=O)O)n1Cc1ccccc1Cl [n-C5 H11 / 2-Cl / H / H]
[1]; A II 4×10^-9 M, 15 minutes
  inhibition at 0.1 µM: 57%

## CCCCCCc1nc(Cl)c(CC(=O)O)n1Cc1ccccc1Cl [n-C6 H13 / 2-Cl / H / H]
[1]; A II 4×10^-9 M, 15 minutes
  inhibition at 0.1 µM: 84%

## CCCCCCc1nc(Cl)c(CC(=O)O)n1Cc1ccc(OC)c(C)c1 [n-C6 H13 / 3-CH3 / 4-CH3 O / H]
[1]; [4]
  inhibition at 1 µM: 100%

## CCCCCCc1nc(Cl)c(CC(=O)O)n1Cc1ccc(OCCCC)cc1 [n-C6 H13 / 4-n-C4 H9 O / H / H]
[1]; [4]
  inhibition at 1 µM: 100%

## CCCCCc1nc(Cl)c(CC(=O)O)n1Cc1ccccc1 [n-C 5 H11 / H / H / H]
[1]; [4]
  inhibition at 1 µM: 65%

## CC(C)(C)c1nc(Cl)c(CC(=O)O)n1Cc1ccccc1 [t-C4 H9 / H / H / H]
[1]; [4]
  inhibition at 1 µM: 10%
